In patent US11840528B2 (Hoffmann-La Roche Inc., priority 2018, dated 2023):

Experiments:
h-GABA-A α5β3γ2 [1] = biological target: T1, h-GABA-A α5β3γ2 (Homo sapiens, UniProt P18507+P31644); experiment: [3H]flumazenil competition binding assay, membranes of HEK293 cells expressing GABAA receptors; details: displacement of [3H]-Flumazenil 0.5 nM, HEK293 cells expressing human receptors, mean of two determinations; Table 1
Summary of the method: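 Receptor source: human α5β3γ2 transiently transfected into HEK293 cells, membranes in pH 7.5 Krebs-tris. Filtration through GF/C, then scintillation counting.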

h-GABA-A α5β3γ2 [2] = biological target: T1, h-GABA-A α5β3γ2; experiment: Two-electrode voltage clamp electrophysiology in Xenopus laevis oocytes expressing GABAA receptors, modulation of GABA EC20 current; assay type: cell-based; design: host or cells: Xenopus laevis oocytes micro-injected with RNA transcripts of the subunits; details: Table 1; for Efficacy (GABA) %: % modulation of GABA EC20 = 100*(Fold increase-1); for Fold increase h-GABA-A α5β3γ2 oocyte: test compound at approx. 30 fold its Ki, GABA at EC20
Summary of the method: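 Modulation is reported as % of the GABA EC20 current, calculated as 100*(Fold increase−1) from the peak ratio between a second GABA response carrying compound (applied at roughly 30-fold Ki) and a preceding control response. Oocytes expressing human α5β3γ2 were clamped at −80 mV at room temperature, 3–5 days after injection.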

Cc1ccc(-c2noc(C)c2Cn2ncc(-c3ccc(OC(F)(F)F)cc3)cc2=O)cn1 [Example 114, 2-((5-methyl-3-(6-methyl-3-pyridyl)isoxazol-4-yl)methyl)-5-(4-(trifluoromethoxy)phenyl)pyridazin-3-one]
Ki (h-GABA-A α5β3γ2 [1]): 24 nM
Efficacy (GABA) % (h-GABA-A α5β3γ2 [2]): 81%
Fold increase h-GABA-A α5β3γ2 oocyte (h-GABA-A α5β3γ2 [2]): 1.81

Cc1ccc(-c2noc(C)c2Cn2ncc(-c3ccc(OC(C)C)cc3)cc2=O)cn1 [Example 115, 5-(4-isopropoxyphenyl)-2-((5-methyl-3-(6-methyl-3-pyridyl)isoxazol-4-yl)methyl)pyridazin-3-one]
Ki (h-GABA-A α5β3γ2 [1]): 10.4 nM
Efficacy (GABA) % (h-GABA-A α5β3γ2 [2]): 87%
Fold increase h-GABA-A α5β3γ2 oocyte (h-GABA-A α5β3γ2 [2]): 1.87

Cc1ccc(-c2noc(C)c2Cn2ncc(-c3ccc(N(C)C)nc3)cc2=O)cn1 [Example 116, 5-[6-(dimethylamino)-3-pyridyl]-2-((5-methyl-3-(6-methyl-3-pyridyl)isoxazol-4-yl)methyl)pyridazin-3-one]
Ki (h-GABA-A α5β3γ2 [1]): 30.8 nM
Efficacy (GABA) % (h-GABA-A α5β3γ2 [2]): 84%
Fold increase h-GABA-A α5β3γ2 oocyte (h-GABA-A α5β3γ2 [2]): 1.84

Cc1ccc(-c2noc(C)c2Cn2ncc(N3CC(O)(C(F)(F)F)C3)cc2=O)cn1 [Example 117, 5-(3-hydroxy-3-(trifluoromethyl)azetidin-1-yl)-2-((5-methyl-3-(6-methylpyridin-3-yl)isoxazol-4-yl)methyl)pyridazin-3(2H)-one]
Ki (h-GABA-A α5β3γ2 [1]): 4.1 nM
Efficacy (GABA) % (h-GABA-A α5β3γ2 [2]): 226%
Fold increase h-GABA-A α5β3γ2 oocyte (h-GABA-A α5β3γ2 [2]): 3.26

Cc1ccc(-c2noc(C)c2Cn2ncc(N3CCC(C)(O)C3)cc2=O)cn1 (stereo not drawn) [Example 118, 5-(3-hydroxy-3-methylpyrrolidin-1-yl)-2-((5-methyl-3-(6-methylpyridin-3-yl)isoxazol-4-yl)methyl)pyridazin-3(2H)-one]
Ki (h-GABA-A α5β3γ2 [1]): 9.2 nM
Efficacy (GABA) % (h-GABA-A α5β3γ2 [2]): 210%
Fold increase h-GABA-A α5β3γ2 oocyte (h-GABA-A α5β3γ2 [2]): 3.1

Cc1ccc(-c2noc(C)c2Cn2ncc(N3CCC(C)(O)CC3)cc2=O)cn1 [Example 119, 5-(4-hydroxy-4-methylpiperidin-1-yl)-2-((5-methyl-3-(6-methylpyridin-3-yl)isoxazol-4-yl)methyl)pyridazin-3(2H)-one]
Ki (h-GABA-A α5β3γ2 [1]): 2.6 nM
Efficacy (GABA) % (h-GABA-A α5β3γ2 [2]): 138%
Fold increase h-GABA-A α5β3γ2 oocyte (h-GABA-A α5β3γ2 [2]): 2.38

Cc1ccc(-c2noc(C)c2Cn2ncc(N3CC[C@H](C(C)(C)O)C3)cc2=O)cn1 [Example 120, 5-((3S)-3-(2-hydroxypropan-2-yl)pyrrolidin-1-yl)-2-((5-methyl-3-(6-methylpyridin-3-yl)-1,2-oxazol-4-yl)methyl)pyridazin-3-one]
Ki (h-GABA-A α5β3γ2 [1]): 7.3 nM
Efficacy (GABA) % (h-GABA-A α5β3γ2 [2]): 172%
Fold increase h-GABA-A α5β3γ2 oocyte (h-GABA-A α5β3γ2 [2]): 2.72

Cc1ccc(-c2noc(C)c2Cn2ncc(N3CC(Oc4ccc(F)cc4)C3)cc2=O)cn1 [Example 123, 5-[3-(4-fluorophenoxy)azetidin-1-yl]-2-[[5-methyl-3-(6-methyl-3-pyridyl)isoxazol-4-yl]methyl]pyridazin-3-one]
Ki (h-GABA-A α5β3γ2 [1]): 18.6 nM
Efficacy (GABA) % (h-GABA-A α5β3γ2 [2]): 152%
Fold increase h-GABA-A α5β3γ2 oocyte (h-GABA-A α5β3γ2 [2]): 2.52

Cc1ccc(-c2noc(C)c2Cn2ncc(N3CC(Oc4ccccn4)C3)cc2=O)cn1 [Example 124, 2-[[5-methyl-3-(6-methyl-3-pyridyl)isoxazol-4-yl]methyl]-5-[3-(2-pyridyloxy)azetidin-1-yl]pyridazin-3-one]
Ki (h-GABA-A α5β3γ2 [1]): 12 nM
Efficacy (GABA) % (h-GABA-A α5β3γ2 [2]): 148%
Fold increase h-GABA-A α5β3γ2 oocyte (h-GABA-A α5β3γ2 [2]): 2.48

Cc1ccc(-c2noc(C)c2Cn2ncc(N3CC(Oc4cccnc4)C3)cc2=O)cn1 [Example 126, 2-[[5-methyl-3-(6-methyl-3-pyridyl)isoxazol-4-yl]methyl]-5-[3-(3-pyridyloxy)azetidin-1-yl]pyridazin-3-one]
Ki (h-GABA-A α5β3γ2 [1]): 9.4 nM
Efficacy (GABA) % (h-GABA-A α5β3γ2 [2]): 134%
Fold increase h-GABA-A α5β3γ2 oocyte (h-GABA-A α5β3γ2 [2]): 2.34

Cc1ccc(-c2noc(C)c2Cn2ncc(N3CC(Oc4cccc(F)c4)C3)cc2=O)cn1 [Example 127, 5-[3-(3-fluorophenoxy)azetidin-1-yl]-2-[[5-methyl-3-(6-methyl-3-pyridyl)isoxazol-4-yl]methyl]pyridazin-3-one]
Ki (h-GABA-A α5β3γ2 [1]): 7.3 nM
Efficacy (GABA) % (h-GABA-A α5β3γ2 [2]): 153%
Fold increase h-GABA-A α5β3γ2 oocyte (h-GABA-A α5β3γ2 [2]): 2.53
